Measurements: ChEMBL document CHEMBL3886983, “Pyridinyl and pyrimidinyl sulfoxide and sulfone derivatives” (2016)

Molecular target: Nicotinamide phosphoribosyltransferase (Homo sapiens, UniProt P43490)
Test: Biochemical Inhibition Assay: The NAMPT Enzymatic Reaction. The NAMPT enzymatic reactions were carried out in Buffer A (50 mM Hepes pH 7.5, 50 mM NaCl, 5 mM MgCl2, and 1 mM THP) in 96-well V-bottom plates. The compound titrations were performed in a separate dilution plate by serially diluting the compounds in DMSO to make a 100x stock. Buffer A (89 uL) containing 33 nM of NAMPT protein was added to 1 uL of 100x compound plate containing controls (e.g. DMSO or blank). The compound and enzyme mixture was incubated for 15 min at rt, then 10 uL of 10x substrate and co-factors in Buffer A were added to the test well to make a final concentration of 1 uM NAM, […] 5-Phospho-D-ribose 1-diphosphate (PRPP), and 2.5 mM Adenosine 5'-triphosphate (ATP). The reaction was allowed to proceed for 30 min at rt, then was quenched with the addition of 11 uL of a solution of formic acid and L-Cystathionine to make a final concentration of 1% formic acid and 10 uM L-Cystathionine. Background and signal strength was determined by addition (or non-addition) of a serial dilution of NMN to a pre-quenched enzyme and cofactor mix.

Sequence of Nicotinamide phosphoribosyltransferase (P43490 whole entry): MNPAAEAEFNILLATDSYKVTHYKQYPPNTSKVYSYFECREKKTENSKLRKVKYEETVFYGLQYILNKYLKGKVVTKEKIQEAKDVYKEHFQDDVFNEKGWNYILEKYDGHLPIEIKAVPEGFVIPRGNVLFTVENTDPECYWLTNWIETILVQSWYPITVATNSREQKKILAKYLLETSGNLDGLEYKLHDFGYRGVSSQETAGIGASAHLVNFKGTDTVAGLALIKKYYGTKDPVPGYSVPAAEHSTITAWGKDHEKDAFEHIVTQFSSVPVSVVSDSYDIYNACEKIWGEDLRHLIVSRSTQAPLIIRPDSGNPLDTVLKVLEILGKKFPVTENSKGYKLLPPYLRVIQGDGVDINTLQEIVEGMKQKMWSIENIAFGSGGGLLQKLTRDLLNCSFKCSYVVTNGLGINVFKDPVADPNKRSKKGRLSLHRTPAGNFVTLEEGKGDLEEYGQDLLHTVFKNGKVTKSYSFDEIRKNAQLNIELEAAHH

**Q.** How did the IC50 turn out when `CN1CCN(c2ccc(S(=O)(=O)c3ccc(CNC(=O)c4cc5ccncc5o4)nc3)cn2)CC1` was run?
**A.** The IC50 was 0.916 nM.
